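Cells were grown in 96-well plates and exposed to each compound for 48 hours at five concentrations; endpoints were interpolated linearly between bracketing concentrations, or set to the highest concentration if not reached. GI50 marks 50% less growth. TGI: total growth inhibition.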
Tests used:
Experiment in all cases: inhibition of tumour cell growth, NCI panel, 48 h; in the data active = GI50 below about 0.43 µM; inactive = the rest
[1] = test system: 786-0 renal
[2] = test system: A498 renal
[3] = test system: A549 NSCLC
[4] = test system: ACHN renal
[5] = test system: BT-549 breast
[6] = test system: CAKI-1 renal
[7] = test system: CCRF-CEM leukemia
[8] = test system: COLO 205 colon
[9] = test system: DU-145 prostate
[10] = test system: EKVX NSCLC
[11] = test system: HCC-2998 colon
[12] = test system: HCT-116 colon
[13] = test system: HCT-15 colon
[14] = test system: HL-60(TB) leukemia
[15] = test system: HOP-62 NSCLC
[16] = test system: HOP-92 NSCLC
[17] = test system: HS 578T breast
[18] = test system: HT29 colon
[19] = test system: IGROV1 ovarian
[20] = test system: K-562 leukemia
[21] = test system: KM12 colon
[22] = test system: LOX IMVI melanoma
[23] = test system: M14 melanoma
[24] = test system: MCF7 breast
[25] = test system: MDA-MB-231 breast
[26] = test system: MDA-MB-435
[27] = test system: MDA-N
[28] = test system: MOLT-4 leukemia
[29] = test system: NCI-H226 lung
[30] = test system: NCI-H23 lung
[31] = test system: NCI-H460 lung
[32] = test system: NCI-H522 lung
[33] = test system: NCI/ADR-RES ovarian
[34] = test system: OVCAR-3 ovarian
[35] = test system: OVCAR-4 ovarian
[36] = test system: OVCAR-5 ovarian
[37] = test system: OVCAR-8 ovarian
[38] = test system: PC-3 prostate
[39] = test system: RPMI-8226 leukemia
[40] = test system: RXF 393 renal
[41] = test system: SF-268 CNS
[42] = test system: SF-295 CNS
[43] = test system: SF-539 CNS
[44] = test system: SK-MEL-2 melanoma
[45] = test system: SK-OV-3 ovarian
[46] = test system: SN12C renal
[47] = test system: SNB-19 CNS
[48] = test system: SNB-75 CNS
[49] = test system: SW-620 colon
[50] = test system: T-47D breast
[51] = test system: TK-10 renal
[52] = test system: U251 CNS
[53] = test system: UACC-257 melanoma
[54] = test system: UACC-62 melanoma
[55] = test system: UO-31 renal
[56] = test system: MALME-3M melanoma
[57] = test system: SK-MEL-28 melanoma
[58] = test system: SK-MEL-5 melanoma
[59] = test system: SR leukemia

CC1=CC(=O)/C(=C/n2c(=S)[nH]c3ccccc32)C(=O)O1
> 100 µM: TGI [1] | TGI [2] | TGI [3] | TGI [4] | TGI [5] | TGI [6] | TGI [7] | TGI [8] | TGI [9] | TGI [10] | TGI [11] | TGI [12] | TGI [13] | TGI [14] | TGI [15] | TGI [16] | TGI [17] | TGI [18] | TGI [19] | TGI [20] | TGI [21] | TGI [22] | TGI [23] | TGI [24] | TGI [25] | TGI [26] | TGI [27] | TGI [28] | TGI [29] | TGI [30] | TGI [31] | TGI [32] | TGI [33] | TGI [34] | TGI [35] | TGI [36] | TGI [37] | TGI [38] | TGI [39] | TGI [40] | TGI [41] | TGI [42] | TGI [43] | TGI [44] | TGI [45] | TGI [46] | TGI [47] | TGI [48] | TGI [49] | TGI [50] | TGI [51] | TGI [52] | TGI [53] | TGI [54] | TGI [55]

COc1cc([C@@H]2c3cc4c(cc3C[C@H]3COC(=O)[C@@H]32)OCO4)cc2c1OCO2
> 68.2 µM: TGI [22]
0.048 µM: TGI [19]
> 100 µM: TGI [3] | TGI [4] | TGI [9] | TGI [10] | TGI [13] | TGI [23] | TGI [56] | TGI [24] | TGI [28] | TGI [32] | TGI [35] | TGI [36] | TGI [39] | TGI [40] | TGI [41] | TGI [57] | TGI [45] | TGI [46] | TGI [48] | TGI [49] | TGI [52] | TGI [54] | TGI [55]
< 0.01 µM: TGI [11] | TGI [18] | TGI [26] | TGI [27] | TGI [29] | TGI [33] | TGI [34] | TGI [42] | TGI [43] | TGI [44] | TGI [58] | TGI [59]
97.7 µM: TGI [7]
> 40 µM: TGI [20]
> 59.8 µM: TGI [1]
0.0149 µM: TGI [8]
3.48 µM: TGI [51]
0.33 µM: TGI [31]
< 0.0224 µM: TGI [25]
3.2 µM: TGI [21]
> 82 µM: TGI [15]

COc1ccc2c(c1)CC[C@@H]1[C@@H]2CC[C@]2(C)C=C(/C=C/C(=O)c3ccccc3)C[C@@H]12
34 µM: TGI [42]
31.1 µM: TGI [4]
40.4 µM: TGI [8]
> 100 µM: TGI [37]
30.5 µM: TGI [38]
46.4 µM: TGI [20]
35.4 µM: TGI [31]
54.5 µM: TGI [28]
30.7 µM: TGI [36]
38.3 µM: TGI [6]
31.3 µM: TGI [52]
36.6 µM: TGI [41]
28.4 µM: TGI [9]
39.6 µM: TGI [21]
34.5 µM: TGI [40]
39.3 µM: TGI [51]
30.2 µM: TGI [49]
25.2 µM: TGI [48]
84.7 µM: TGI [7]
36 µM: TGI [26]
31.5 µM: TGI [47]
35.7 µM: TGI [18]
29.7 µM: TGI [16]
33.6 µM: TGI [29]
41.5 µM: TGI [44]
33.4 µM: TGI [46]
32.1 µM: TGI [25]
35.1 µM: TGI [33]
49 µM: TGI [17]
32.4 µM: TGI [14] | TGI [43]
31.2 µM: TGI [11] | TGI [15]
34.6 µM: TGI [53]
54.4 µM: TGI [39]
32.3 µM: TGI [10]
36.3 µM: TGI [24]
27.2 µM: TGI [58] | TGI [54]
47.4 µM: TGI [59]
26.3 µM: TGI [2]
34.3 µM: TGI [13] | TGI [23]
40.2 µM: TGI [3]
29.9 µM: TGI [22]
31.7 µM: TGI [34] | TGI [57]
31.6 µM: TGI [35]
30.8 µM: TGI [30]
30.1 µM: TGI [56] | TGI [50] | TGI [55]
29.1 µM: TGI [1] | TGI [12]
32.7 µM: TGI [5] | TGI [32]
38.9 µM: TGI [45]
27.4 µM: TGI [19]
inactive: GI50 [1] 15.5 µM | GI50 [2] 13.3 µM | GI50 [3] 18.5 µM | GI50 [4] 16.4 µM | GI50 [5] 17.3 µM | GI50 [6] 20.3 µM | GI50 [7] 32.6 µM | GI50 [8] 19.7 µM | GI50 [9] 14.6 µM | GI50 [10] 17.7 µM | GI50 [11] 16.2 µM | GI50 [12] 15.6 µM | GI50 [13] 17.4 µM | GI50 [14] 11.2 µM | GI50 [15] 16.9 µM | GI50 [16] 15.5 µM | GI50 [17] 19 µM | GI50 [18] 17 µM | GI50 [19] 13.3 µM | GI50 [20] 18.5 µM | GI50 [21] 17.7 µM | GI50 [22] 14.9 µM | GI50 [23] 16.6 µM | GI50 [56] 14 µM | GI50 [24] 18.6 µM | GI50 [25] 17.2 µM | GI50 [26] 18.4 µM | GI50 [28] 16.5 µM | GI50 [29] 17.1 µM | GI50 [30] 15.4 µM | GI50 [31] 17.2 µM | GI50 [32] 16 µM | GI50 [33] 17.6 µM | GI50 [34] 16.2 µM | GI50 [35] 16.2 µM | GI50 [36] 16.5 µM | GI50 [37] 31.2 µM | GI50 [38] 15.4 µM | GI50 [39] 24.3 µM | GI50 [40] 17.5 µM | GI50 [41] 18.2 µM | GI50 [42] 17.5 µM | GI50 [43] 17.4 µM | GI50 [44] 21 µM | GI50 [57] 16.2 µM | GI50 [58] 14 µM | GI50 [45] 20.8 µM | GI50 [46] 18.5 µM | GI50 [47] 16.8 µM | GI50 [48] 12.2 µM | GI50 [59] 16.6 µM | GI50 [49] 15.4 µM | GI50 [50] 12 µM | GI50 [51] 21.3 µM | GI50 [52] 16.6 µM | GI50 [53] 16.2 µM | GI50 [54] 13.8 µM | GI50 [55] 15.2 µM

From PubChem BioAssay (NCI)
